Laboratory results taken from US6387329B1, “Use of an array of polymeric sensors of varying thickness for detecting analytes in fluids” (California Institute of Technology, priority 1998, dated 2002).

Test system: cytochrome P-450 aniline p-hydroxylation
Experiment: inhibitory action of alcohols on cytochrome P-450 aniline p-hydroxylation (data of Cohen and Mannering)
Type: biochemical
Conditions: versus the electronic nose QSAR and another QSAR on the cytochrome P-450 system
Source text: To test the ability of the “electronic nose” to identify molecules of interest having a particular biological activity selected from a library of molecules of interest, a quantitative structure-activity relationship (QSAR) was used to predict the inhibitory action of a series of alcohols on cytochrome P-450 aniline p-hydroxylation.
The values are expressed as PI50, where I50 is the concentration of the alcohol (in mM) at which the activity of the enzyme is 50% inhibited, and PI50 is the negative logarithm of I50. More positive numbers correspond to more strongly inhibiting alcohols.

activity compared with QSAR prediction: higher activity than is predicted
Structure (SMILES): OCc1ccccc1 [benzyl alcohol]
